In article PMC8857485, “Prostate secretory protein 94 inhibits sterol binding and export by the mammalian CAP protein CRISP2 in a calcium-sensitive manner” (The Journal of Biological Chemistry, 2022) one finds Kd data, which are given here for 1 molecule.

In one assay the target is T1, CRISP2 Y99P (Homo sapiens, UniProt P16562, Y99P).
T1 construct: made in house; host or cells: E. coli
Put plainly: MST binding to CRISP2 single mutant Y99P. The arrangement: species or system mammalian. The following applies: absence of PSP94, read-out: Kd, sterol binding by CRISP2 Y99P. From the text:
(§1) This interaction is thus located outside the hydrophobic loop that harbors the sterol-binding CBM. Based on these structural considerations, it is thus not apparent why and how the interaction between PSP94 and CRISP2 would block sterol binding at the CBM. To investigate this question in more detail, we first performed computational docking studies to identify residues in CRISP2 that are critical for the interaction with PSP94. […] Two of these three interacting residues, N97 and L98, are conserved in all three CAP family members tested here, CRISP2, CRISP3, and Pry1 (Fig. 4A). […]
(§2) MST experiments were performed to assess protein–protein, protein–lipid, and protein–calcium interactions using a Monolith NT.115 (Nanotemper Technologies). […] The dissociation constant Kd was obtained by plotting the normalized fluorescence (Fnorm) against the logarithm of ligand concentration. […]
(§3) Quadruple mutant cells lacking the acyl-CoA synthetases FAA1 and FAA4 and the yeast CAP family members PRY1 and PRY3 (faa1∆ faa4∆ pry1∆ pry3∆) expressing different combinations of plasmid-borne copies of PRY1, CRISP2, and or PSP94, or their respective empty vectors (pRS423 or pRS426) were cultivated overnight. The export of fatty acids into the culture medium was then quantified. […]

The target of the next assay is T2, CRISP2 (Homo sapiens, UniProt P16562).
T2 construct: made in house; host or cells: E. coli BL21
T2 sequence (P16562 22-243): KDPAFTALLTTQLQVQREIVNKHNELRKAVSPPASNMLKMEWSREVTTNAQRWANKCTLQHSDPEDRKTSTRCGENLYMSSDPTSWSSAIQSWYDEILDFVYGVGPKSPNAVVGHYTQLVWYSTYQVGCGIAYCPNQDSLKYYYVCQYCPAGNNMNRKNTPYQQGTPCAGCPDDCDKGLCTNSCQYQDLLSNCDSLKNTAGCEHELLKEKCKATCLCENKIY
The experiment in a line: MST binding to CRISP2. The arrangement: species or system mammalian.
Text: (§4) To confirm the direct interaction of PSP94 with CRISP3 and to test whether PSP94 would also bind other CAP family members such as yeast Pry1, or CRISP2, we performed in vitro protein binding assay using microscale thermophoresis (MST). Therefore, PSP94 and the CAP family members, Pry1, CRISP2, and CRISP3, were expressed as fusion proteins with a C-terminal polyhistidine tag in Escherichia coli, and the proteins were affinity purified on nickel-NTA agarose beads. The purified CAP proteins were then fluorescently labeled using RED-tris-NTA and incubated with varying concentrations of PSP94. […] PSP94 thus has high binding affinity for all three CAP proteins tested, and it also binds the CAP domain of Pry1 (Pry1^CAP) alone.
DNA encoding proteins of interest were PCR amplified and cloned into NcoI and XhoI restriction sites of pET22b, which contains a PelB signal sequence to direct the secretion of expressed protein into the periplasmic space. Plasmids were transformed into E. coli BL21, and proteins were expressed with a C-terminal polyhistidine tag. Different induction strategies were used: overnight induction with lactose at 24 °C for Pry1, CRISP2, and PSP94 and 6 h of induction with 0.4 mM IPTG at 24 °C for the CAP domain of Pry1. Cells were collected and lysed, and the soluble cell lysate was incubated with nickel-nitrilotriacetic acid beads as per the manufacturer instructions (Qiagen). Beads were washed and loaded onto a Ni^2+-NTA column, and proteins were eluted with a buffer containing 60 mM NaH2PO4, 300 mM NaCl, and 300 mM imidazole, pH 8.0. […] Protein concentration was determined by Lowry assay using the Folin reagent and bovine serum albumin as protein standard.
as §2

For a further assay, the target named is T3, CRISP2 N97P (Homo sapiens, UniProt P16562, N97P).
T3 construct: made in house; host or cells: E. coli
The experiment in a line: MST binding to CRISP2 single mutant N97P. The arrangement: species or system mammalian. The following applies: absence of PSP94, read-out: Kd, sterol binding by CRISP2 N97P.
Text: as §1, §2, §3

The next assay addresses T4, Pry1 (Saccharomyces cerevisiae, UniProt P47032).
T4 construct: made in house; host or cells: E. coli BL21
The experiment in a line: Microscale thermophoresis (MST) binding to Pry1. The following applies: absence of PSP94, read-out: Kd, sterol binding by Pry1.
Text: as §4
DNA encoding proteins of interest were PCR amplified and cloned into NcoI and XhoI restriction sites of pET22b, which contains a PelB signal sequence to direct the secretion of expressed protein into the periplasmic space. […] Protein concentration was determined by Lowry assay using the Folin reagent and bovine serum albumin as protein standard.
as §2
For orientation: In MST a laser heats a spot of the sample, and binding alters the fluorescence response.

SMILES strings stand for the structures. Counter-ions that a name gives are not always drawn. Like-named read-outs stand apart in the source and are kept apart here.

T4 sequence (P47032 20-299): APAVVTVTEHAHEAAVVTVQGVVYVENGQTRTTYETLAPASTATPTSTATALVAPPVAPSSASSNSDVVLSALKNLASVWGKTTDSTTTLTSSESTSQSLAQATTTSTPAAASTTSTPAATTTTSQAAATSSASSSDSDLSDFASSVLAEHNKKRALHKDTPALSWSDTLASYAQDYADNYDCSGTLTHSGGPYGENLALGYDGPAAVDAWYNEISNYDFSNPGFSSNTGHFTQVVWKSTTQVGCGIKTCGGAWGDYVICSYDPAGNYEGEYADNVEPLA
T1 sequence (P16562 22-243 Y99P): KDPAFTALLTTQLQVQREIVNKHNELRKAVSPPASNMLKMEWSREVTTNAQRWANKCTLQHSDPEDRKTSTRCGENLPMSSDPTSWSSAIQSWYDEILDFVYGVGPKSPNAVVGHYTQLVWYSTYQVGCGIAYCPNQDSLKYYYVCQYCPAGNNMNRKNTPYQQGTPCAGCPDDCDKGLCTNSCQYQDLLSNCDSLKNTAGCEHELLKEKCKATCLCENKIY
T3 sequence (P16562 22-243 N97P): as the sequence (P16562 22-243 Y99P) above, with N76P, P78Y counted along it

Take `CC(C)CCC[C@@H](C)[C@H]1CC[C@H]2[C@@H]3CC=C4C[C@@H](OS(=O)(=O)O)CC[C@]4(C)[C@H]3CC[C@]12C` [cholesterol sulfate]: the Kd on CRISP2 Y99P turned out to be 2.5 ± 0.9 µM; on CRISP2 (PSP94^F24G preincubated 5 min at 24 °C, read-out: Kd, sterol binding by CRISP2 in presence of PSP94^F24G), 9.7 ± 3.04 µM; on CRISP2 (absence of PSP94, read-out: Kd, sterol binding by CRISP2), 1.6 ± 0.9 µM; on CRISP2 N97P it was 3.1 ± 1.5 µM; at Pry1 it was 3 ± 1.7 µM.

The term Kd denotes the free concentration of one partner at which half of the binding sites on the other are occupied at equilibrium, for simple one-to-one binding.
